Test results as given in US20020182736A1, “Methods to measure lipid antioxidant activity” (TRUSTEES OF TUFTS COLLEGE, priority 2001, published 2002).
Values joined by “and” are separate entries in the source; they are usually repeats but may differ in a detail not shown here. Equal entries are not always repeated. “Also recorded” adds a separate entry of the source. Values belong to the compound of their own block, whether it stands above or below them.

Legend:
[1] = 37° C; cited from earlier work
[2] = test system: lipid plasma compartment oxidation; experiment: Lipid plasma compartment oxidation, BODIPY 581/591 green fluorescence
Protocol: Plasma oxidation was measured fluorometrically using two different fluorescent probes: DCFH and BODIPY. DCFH-DA and BODIPY stock solutions were prepared in EtOH and dimethylsulfoxide, respectively, stored under nitrogen at −20° C. and used within two months. The final plasma dilution was 1:5 (v/v).
In the experiments using β-carotene, to avoid the filtering effect due to the carotenoid, the oxidation product of BODIPY was also detected at λex=520 and at λem-540 nm. The fluorescence measurements were carried out using a Perkin Elmer spectrofluorometer (model 650-10s) with 1 cm path length fluorescence cuvettes.
Briefly, β-carotene (dissolved in stabilized THF, 10 mg/ml) or α-tocopherol (4.3 mg/ml in EtOH) were added to plasma to reach a final concentration of 50 μM; the samples were then vortexed for 30 sec and incubated at 37±1° C. for 1 to 6 hr under nitrogen. […] Controls were prepared in the same way using solvent only.
The effect of adding the membrane soluble antioxidants, α-tocopherol (in EtOH) and β-carotene (in THF), pre-incubated with plasma, was studied. […] Values are mean±SD of five independent experiments. Statistical analysis: one-way ANOVA with Tukey's post test; *p<0.05, **p<0.01.
To monitor the aqueous phase oxidizability, AAPH was used as a hydrophilic radical generator and coupled to DCFH was used as the indicator.

[3] = test system: aqueous plasma compartment oxidation; experiment: Aqueous plasma compartment oxidation, DCFH to DCF fluorescence; set-up: species or system human; conditions: for protective effect on aqueous compartment oxidation: 180 min of incubation
Protocol: The final plasma dilution was 1:5 (v/v).
DCFH was prepared from DCFH-DA by basic hydrolysis. Briefly 500 μl of DCFH-DA stock solution (1 mM) was mixed with 2 ml of NaOH (0.01 N at 4° C.) for 20 minutes while protected from the light. The mixture was then neutralized with 2 ml of HCl (0.01 N), diluted with PBS to a final concentration of 10 μM and stored in ice for no longer than 8 hrs (working solution); an aliquot of 100 μl was added to 200 μl of plasma and then diluted to a final volume of 1 ml with PBS. […] The excitation wavelength (λex) was set at […] (slit 5 nm) and emission (λem) at 520 nm (slit 5 nm).
Values are mean±SD of five independent experiments. […] Samples were incubated at 37° C. in the dark and at fixed times the DCF content measured by fluorescence (λex=502 nm, λem=520 nm).

[4] = test system: lipid peroxyl radicals generated by MeO-AMVN in human plasma; experiment: Consumption of endogenous plasma antioxidants induced by MeO-AMVN (HPLC); conditions: for Residual Amount (%) of Cryptoxanthin / Residual Amount (%) of Lutein / Residual Amount (%) of Lycopene / Residual Amount (%) of Zeaxanthin / Residual Amount (%) of β-Carotene: MeO-AMVN 2 mM for 60 min
Protocol: After an overnight fast (10-12 h), blood from two healthy donors was collected in ethylenediaminetetraacetic acid (EDTA)-containing tubes. In order to reduce the variability of different donors, blood samples from these two subjects were collected weekly for the duration of the experiment. Immediately after collection, the samples were placed on ice and protected from light. Plasma was obtained by centrifugation at 800 g for 20 min at 4° C. and immediately used for the in vitro studies.
In the presence of 10-20 mM of AAPH, the flux of aqueous radicals calculated on the basis of the known rate of free radical generation from AAPH at 37° C.
In order to obtain homogeneous incorporation, the lipid soluble initiators were added slowly to the samples with a micro-syringe (10 μl) with stirring. The samples were then vortexed for 10 sec and incubated at 37±1° C. under aerobic conditions.
In a second similar experiment, other antioxidants were studied. […] A 100 μl aliquot of the reaction mixture was extracted for β-carotene and α-tocopherol analysis. Echinenone in ethanol was added as an internal standard. The mixture was extracted with CHCl3:CH3OH (2:1 v/v) containing 0.2% BHT and hexane containing 0.1% BHT, dried under nitrogen, redissolved in ethanol, and injected into an HPLC system with a C30 column (3 μm, 150×4.6 mm, YMC, Wilmington, N.C.).
For water-soluble antioxidant measurement, the mixtures were immediately deproteinized with perchloric acid (250 mM).
Results are expressed as percentages with respect to control samples prepared without the azo-compounds.

[5] = ESR quenching of α-tocopheroxyl radical generated from α-tocopherol and DPPH; format: biochemical
Protocol: α-TOC+DPPH→α-TOC-O.+DPPHH [1]
For sample preparation, α-tocopherol (900 μM) and DPPH (600 μM) in ethanol solution were mixed for 20 sec and 50 μl of the reaction mixture transferred into a capillary ESR tube. (−)-Epigallocatechin-(3)-gallate (EGCG) was added to the mixture immediately after DPPH decolorization (30 sec after DPPH addition).

[6] = cited from earlier work
[7] = test system: aqueous peroxyl radicals generated by AAPH in human plasma; experiment: Consumption of endogenous plasma antioxidants induced by AAPH (HPLC); conditions: for Residual Amount (%) of Cryptoxanthin / Residual Amount (%) of Lutein / Residual Amount (%) of Lycopene / Residual Amount (%) of Zeaxanthin / Residual Amount (%) of β-Carotene: AAPH 20 mM for 120 min
Protocol: In a second similar experiment, other antioxidants were studied. […] Echinenone in ethanol was added as an internal standard.

SMILES: CC(C)(N=NC(C)(C)C(=N)N)C(=N)N.Cl.Cl [AAPH, 2,2′-azobis (2-amidinopropane) dihydrochloride]
rate of free radical generation Ri [1]: 1.36×10^−6 [AAPH] mol/liter/sec
delay of BODIPY oxidation in plasma ([2]; 20 mM AAPH): 180 min
start of propagation phase of DCFH oxidation in plasma ([3]; 10 mM AAPH): 180 min
start of propagation phase / lag phase of DCFH oxidation in plasma ([3]; 20 mM AAPH, dihydrochloride): 90 min and 120 min

IC50 ([5]; 60 sec after the beginning of the reaction, read-out: IC50 quenching of α-TOC-O. ESR signal): 12.1 µM
IC50 ([2]; read-out: IC50 in lipid compartment, MeO-AMVN 2 mM, after 180 min of incubation): 4.37 µM
IC50 ([3]; AAPH 20 mM, after 180 min of incubation): 720 nM
SMILES: O=C(O[C@@H]1Cc2c(O)cc(O)cc2O[C@@H]1c1cc(O)c(O)c(O)c1)c1cc(O)c(O)c(O)c1 [EGCG, (−)-Epigallocatechin-(3)-gallate]
Residual Amount (%) of Cryptoxanthin ([4]; EGCG 0.5 μM): 54.38 ± 2.74%
Residual Amount (%) of Lutein ([4]; EGCG 0.5 μM): 32.57 ± 4.14%
Residual Amount (%) of Lycopene ([4]; EGCG 0.5 μM): 20.15 ± 3.22%
Residual Amount (%) of Zeaxanthin ([4]; EGCG 0.5 μM): 47.69 ± 5.85%
Residual Amount (%) of β-Carotene ([4]; EGCG 0.5 μM): 51.95 ± 1.68%
Residual Amount (%) of Cryptoxanthin ([4]; EGCG 1 μM): 52.36 ± 0.79%
Residual Amount (%) of Lutein ([4]; EGCG 1 μM): 33.75 ± 3.94%
Residual Amount (%) of Lycopene ([4]; EGCG 1 μM): 19.76 ± 2.62%
Residual Amount (%) of Zeaxanthin ([4]; EGCG 1 μM): 49.64 ± 2.14%
Residual Amount (%) of β-Carotene ([4]; EGCG 1 μM): 50.15 ± 3.35%
Residual Amount (%) of Cryptoxanthin ([4]; EGCG 5 μM): 45.16 ± 3.09%
Residual Amount (%) of Lutein ([4]; EGCG 5 μM): 44.64 ± 5.50%
Residual Amount (%) of Lycopene ([4]; EGCG 5 μM): 23.56 ± 1.78%
Residual Amount (%) of Zeaxanthin ([4]; EGCG 5 μM): 44.31 ± 0.94%
Residual Amount (%) of β-Carotene ([4]; EGCG 5 μM): 57.73 ± 0.54%
% α-tocopherol remaining ([4]; EGCG 10 μM, MeO-AMVN): 96.71±1.46%
Residual Amount (%) of Cryptoxanthin ([4]; EGCG 10 μM): 41.84 ± 1.60%
Residual Amount (%) of Lutein ([4]; EGCG 10 μM): 40.36 ± 4.03%
Residual Amount (%) of Lycopene ([4]; EGCG 10 μM): 26.72 ± 0.94%
Residual Amount (%) of Zeaxanthin ([4]; EGCG 10 μM): 42.67 ± 2.04%
Residual Amount (%) of β-Carotene ([4]; EGCG 10 μM): 59.13 ± 3.72%
sparing of carotenoids depletion ([4]; EGCG 0.5-10 μM, MeO-AMVN): ineffective; also recorded: failed to prevent
% inhibition of ESR signal ([5]; EGCG 2 μM, 60 sec after the beginning of the reaction): 8±1.3%
quenching effect on ESR signal ([5]; EGCG 25 μM): almost complete disappearance
redox potential E ([6]; E(EGCG-O., H+/EGCG-OH), E(A−., H+/AH−)): 0.48 V
ΔE to reduce tocopheroxyl radical ([6]; physiological pH): 0.06 V
protective effect on lipid compartment oxidation ([2]; EGCG 0.5 μM, MeO-AMVN 2 mM, 180 min of incubation): 13.01±0.56%
protection of lipid compartment oxidation ([2]; EGCG 10 μM, MeO-AMVN 2 mM, 180 min of incubation): 68±2.3%
lowest / starting effective concentration, lipid compartment ([2]; MeO-AMVN 2 mM, 180 min): 0.5 µM and 0.5 to 1 µM
Residual Amount (%) of Cryptoxanthin ([7]; EGCG 0.5 μM): 28.46 ± 3.35%
Residual Amount (%) of Lutein ([7]; EGCG 0.5 μM): 26.05 ± 4.26%
Residual Amount (%) of Lycopene ([7]; EGCG 0.5 μM): 9.35 ± 5.18%
Residual Amount (%) of Zeaxanthin ([7]; EGCG 0.5 μM): 25.61 ± 6.53%
Residual Amount (%) of β-Carotene ([7]; EGCG 0.5 μM): 41.51 ± 6.64%
Residual Amount (%) of Cryptoxanthin ([7]; EGCG 1 μM): 36.21 ± 1.71 %
Residual Amount (%) of Lutein ([7]; EGCG 1 μM): 40.64 ± 5.30 %
Residual Amount (%) of Lycopene ([7]; EGCG 1 μM): 18.06 ± 2.44%
Residual Amount (%) of Zeaxanthin ([7]; EGCG 1 μM): 48.78 ± 4.81 %
Residual Amount (%) of β-Carotene ([7]; EGCG 1 μM): 54.38 ± 4.86 %
Residual Amount (%) of Cryptoxanthin ([7]; EGCG 5 μM): 48.88 ± 2.08 %
Residual Amount (%) of Lutein ([7]; EGCG 5 μM): 56.05 ± 4.42 %
Residual Amount (%) of Lycopene ([7]; EGCG 5 μM): 25.26 ± 1.02 %
Residual Amount (%) of Zeaxanthin ([7]; EGCG 5 μM): 58.89 ± 5.10 %
Residual Amount (%) of β-Carotene ([7]; EGCG 5 μM): 58.63 ± 3.30 %
Residual Amount (%) of Cryptoxanthin ([7]; EGCG 10 μM): 56.45 ± 5.00 %
Residual Amount (%) of Lutein ([7]; EGCG 10 μM): 63.13 ± 8.15 %
Residual Amount (%) of Lycopene ([7]; EGCG 10 μM): 32.30 ± 4.24 %
Residual Amount (%) of Zeaxanthin ([7]; EGCG 10 μM): 62.36 ± 11.92 %
Residual Amount (%) of β-Carotene ([7]; EGCG 10 μM): 64.35 ± 6.37 %
effect on consumption of ascorbic acid and uric acid ([7]; EGCG 0.5-10 μM, 20 mM AAPH): ineffective
concentration at which activity starts, aqueous compartment ([3]; AAPH 20 mM, 180 min): 0.25 µM
protective effect on aqueous compartment oxidation ([3]; EGCG 10 μM, AAPH 20 mM): 93.02±2.02%
protective effect on aqueous compartment oxidation ([3]; EGCG 0.25 AM, AAPH 20 mM): 20.25±0.34%
antioxidant efficiency in the aqueous in respect to the lipid domain ([3]; from IC50 after 180 min): six times greater
